In this assay the target is Wild-type cruzipain (Trypanosoma cruzi, UniProt P25779). Briefly: Trypanosoma cruzi cruzipain peptidase activity assay (Ki). It counts as biochemical. To be noted: read-out: Ki, inhibitors of cruzain and cruzipains. On the procedure:
Unless otherwise stated, all general chemicals and biochemicals were purchased from either the Sigma Chemical Company, Poole, Dorset, U.K or from Fisher Scientific UK, Loughborough, Leicestershire, U.K. Absorbance assays were carried out in flat-bottomed 96-well plates (Spectra; Greiner Bio-One Ltd., Stonehouse, Gloucestershire, U.K.) using a SpectraMax PLUS384 plate reader (Molecular Devices, Crawley, U.K.). Fluorescence high throughput assays were carried out in either 384-well microtitre plates (Corning Costar 3705 plates, Fisher Scientific) or 96-well ‘U’ bottomed Microfluor W1 microtitre plates (Thermo Labsystems, Ashford, Middlesex, U.K.). Fluorescence assays were monitored using a SpectraMax Gemini fluorescence plate reader (Molecular Devices). For substrates employing either a 7-amino-4-methylcoumarin (AMC) or a 7-amino-4-trifluoromethylcoumarin (AFC) fluorophore, assays were monitored at an excitation wavelength of 365 nm and an emission wavelength of 450 nm and the fluorescence plate reader calibrated with AMC. For substrates employing a 3-amino-benzoyl (Abz) fluorophore, assays were monitored at an excitation wavelength of 310 nm and an emission wavelength of 445 nm; the fluorescence plate reader calibrated with 3-amino-benzamide (Fluka). Unless otherwise indicated, all the peptidase substrates were purchased from Bachem UK, St Helens, Merseyside, UK. Substrates utilizing fluorescence resonance energy transfer methodology (i.e. FRET-based substrates) were synthesized at Incenta Limited using published methods (Atherton & Sheppard, Solid Phase Peptide Synthesis, IRL Press, Oxford, U.K, 1989) and employed Abz (2-aminobenzoyl) as the fluorescence donor and 3-nitro-tyrosine [Tyr(NO2)] as the fluorescence quencher (Meldal, M. and Breddam, K., Anal. Biochem, 195, 141-147, 1991). Hydroxyethylpiperazine ethanesulfonate (HEPES), tris-hydroxylmethyl aminomethane (tris) base, bis-tris-propane and all the biological detergents (e.g. CHAPS, zwittergents, etc.) were purchased from CN Biosciences UK, Beeston, Nottinghamshire, U.K. Glycerol was purchased from Amersham Pharmacia Biotech, Little Chalfont, Buckinghamshire, U.K. Stock solutions of substrate or inhibitor were made up to 10 mM in 100% dimethylsulfoxide (DMSO) (Rathburns, Glasgow, U.K.) and diluted as appropriately required. In all cases the DMSO concentration in the assays was maintained at less than 1% (vol./vol.).
Assay protocols were based on literature precedent (Table 4; Barrett, A. J., Rawlings, N. D. and Woessner, J. F., 1998, Handbook of Proteolytic Enzymes, Academic Press, London and references therein) and modified as required to suit local assay protocols. Enzyme was added as required to initiate the reaction and the activity, as judged by the change in fluorescence upon conversion of substrate to product, was monitored over time. All assays were carried out at 25±1° C.
Wild-type cruzipain, derived from Trypanosoma cruzi Dm28 epimastigotes, was obtained from Dr. Julio Scharfstein (Instituto de Biofisica Carlos Chagas Filho, Universidade Federal do Rio de Janeiro, Rio de Janeiro, Brazil). Activity assays were carried out in 100 mM sodium phosphate, pH 6.75 containing 1 mM EDTA and 10 mM L-cysteine using 2.5 nM enzyme. […] The rate of conversion of substrate to product was derived from the slope of the increase in fluorescence monitored continuously over time.
The apparent inhibition constant (Ki) for each compound was determined on the basis that inhibition was reversible and occurred by a pure-competitive mechanism. The Ki values were calculated, from the dependence of enzyme activity as a function of inhibitor concentration, by direct regression analysis (Prism v 3.02) using Equation 2 (Cornish-Bowden, A., 1995.). [formula]

pKi: −log10 of the molar value.

As usually defined, the pKi is the negative decadic logarithm of the Ki, by convention in mol/L.

Chain of Wild-type cruzipain (P25779 whole entry): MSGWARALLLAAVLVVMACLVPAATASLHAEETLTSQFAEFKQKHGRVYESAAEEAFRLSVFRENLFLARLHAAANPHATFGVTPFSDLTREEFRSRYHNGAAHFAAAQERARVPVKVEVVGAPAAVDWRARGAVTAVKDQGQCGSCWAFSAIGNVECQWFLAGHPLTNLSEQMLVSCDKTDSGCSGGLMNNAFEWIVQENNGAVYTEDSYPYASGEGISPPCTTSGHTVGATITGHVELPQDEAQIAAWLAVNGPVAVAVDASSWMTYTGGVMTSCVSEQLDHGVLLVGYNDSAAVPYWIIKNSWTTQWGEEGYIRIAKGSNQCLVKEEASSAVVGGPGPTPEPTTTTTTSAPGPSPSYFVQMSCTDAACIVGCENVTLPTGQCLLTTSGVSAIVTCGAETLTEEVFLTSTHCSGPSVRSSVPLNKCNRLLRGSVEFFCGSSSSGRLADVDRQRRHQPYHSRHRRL

Take `COC(=O)NCC(=O)N1CC(=O)[C@@H]2[C@H]1CCN2C(=O)[C@H](CC(C)C)NC(=O)c1ccc(N(C)C)cc1` [Example 183, (3aS,6aR)-(2-{4-[(2S)-2-(4-Dimethylamino-benzoylamino)-4-methyl-pentanoyl]-3-oxo-hexahydro-pyrrolo[3,2-b]pyrrole-1-yl}-2-oxo-ethyl)-carbamic acid methyl ester]: the pKi is greater than 5.30.

In the case of `CCC[C@H](NC(=O)c1ccc(N(C)C)cc1)C(=O)N1CC[C@@H]2[C@H]1C(=O)CN2C(=O)c1ccccc1` [Example 196, (3aR,6aS)-N-[(1S)-1-(4-Benzoyl-6-oxo-hexahydro-pyrrolo[3,2-b]pyrrole-1-carbonyl)-butyl]-4-dimethylamino-benzamide], the negative logarithm of the Ki (pKi) was greater than 5.30.

Turning to `CC(=O)N[C@@H](C)C(=O)N1CC(=O)[C@@H]2[C@H]1CCN2C(=O)[C@H](CC(C)C)NC(=O)c1ccc(N(C)C)cc1` [Example 197, (3aR,6aS)-N-{(1S)-1-[4-((2S)-2-Acetylamino-propionyl)-6-oxo-hexahydro-pyrrolo[3,2-b]pyrrole-1-carbonyl]-3-methyl-butyl}-4-dimethylamino-benzamide], the negative-log Ki (pKi) is greater than 5.30.

Consider `CC(=O)NCC(=O)N1CC(=O)[C@@H]2[C@H]1CCN2C(=O)[C@H](CC(C)C)NC(=O)c1ccc(N(C)C)cc1` [Example 199, (3aR,6aS)-N-{(1S)-1-[4-(2-Acetylamino-acetyl)-6-oxo-hexahydro-pyrrolo[3,2-b]pyrrole-1-carbonyl]-3-methyl-butyl}-4-dimethylamino-benzamide], for which the negative-log Ki (pKi) is greater than 5.30.

For `CNCC(=O)N1CC(=O)[C@@H]2[C@H]1CCN2C(=O)[C@H](CC(C)C)NC(=O)c1ccc(N(C)C)cc1` [Example 200, (3aR,6aS)-4-Dimethylamino-N-{(1S)-3-methyl-1-[4-(2-methylamino-acetyl)-6-oxo-hexahydro-pyrrolo[3,2-b]pyrrole-1-carbonyl]-butyl}-benzamide], the negative-log Ki (pKi) was greater than 5.30.

Regarding `CC[C@H](N)C(=O)N1CC(=O)[C@@H]2[C@H]1CCN2C(=O)[C@H](CC(C)C)NC(=O)c1ccc(N(C)C)cc1` [Example 203, (3aR,6aS)-N-{(1S)-1-[4-((2S)-2-Amino-butyryl)-6-oxo-hexahydro-pyrrolo[3,2-b]pyrrole-1-carbonyl]-3-methyl-butyl}-4-dimethylamino-benzamide], the pKi is greater than 5.30.

On to `CC(C)C[C@H](NC(=O)c1ccc(N(C)C)cc1)C(=O)N1CC[C@@H]2[C@H]1C(=O)CN2C(=O)[C@@H](N)C(C)C` [Example 205, (3aR,6aS)-N-{(1S)-1-[4-((2S)-2-Amino-3-methyl-butyryl)-6-oxo-hexahydro-pyrrolo[3,2-b]pyrrole-1-carbonyl]-3-methyl-butyl}-4-dimethylamino-benzamide], for which the pKi was greater than 5.30.

As to `CC(C)C[C@H](NC(=O)c1ccc(N(C)C)cc1)C(=O)N1CC[C@@H]2[C@H]1C(=O)CN2C(=O)[C@@H](N)CO` [Example 206, (3aR,6aS)-N-{(1S)-1-[((2S)-2-Amino-3-hydroxy-propionyl)-6-oxo-hexahydro-pyrrolo[3,2-b]pyrrole-1-carbonyl]-3-methyl-butyl}-4-dimethylamino-benzamide], the pKi was greater than 5.30.

Regarding `CCC[C@H](N)C(=O)N1CC(=O)[C@@H]2[C@H]1CCN2C(=O)[C@H](CC(C)C)NC(=O)c1ccc(N(C)C)cc1` [Example 210, (3aR,6aS)-N-{(1S)-1-[4-((2S)-2-Amino-pentanoyl)-6-oxo-hexahydro-pyrrolo[3,2-b]pyrrole-1-carbonyl]-3-methyl-butyl}-4-dimethylamino-benzamide], the negative logarithm of the Ki (pKi) was greater than 5.30.

For `CC(C)C[C@H](NC(=O)c1ccc(N(C)C)cc1)C(=O)N1CC[C@@H]2[C@H]1C(=O)CN2C(=O)[C@@H]1CCCCN1` [Example 217, (3aR,6aS)-4-Dimethylamino-N-{(1S)-3-methyl-1-[6-oxo-4-((2S)-piperidine-2-carbonyl)-hexahydro-pyrrolo[3,2-b]pyrrole-1-carbonyl]-butyl}-benzamide], the negative-log Ki (pKi) is greater than 5.30.
